# Experimental data reported in BindingDB's records for doi:10.7270/Q2NV9GP9 (Burnham Center For Chemical Genomics, 2010).
# Counter-ions that a name gives are not always drawn.
# Biological target: T1, Apelin receptor (Homo sapiens, UniProt P35414)
# T1 sequence (P35414 whole entry): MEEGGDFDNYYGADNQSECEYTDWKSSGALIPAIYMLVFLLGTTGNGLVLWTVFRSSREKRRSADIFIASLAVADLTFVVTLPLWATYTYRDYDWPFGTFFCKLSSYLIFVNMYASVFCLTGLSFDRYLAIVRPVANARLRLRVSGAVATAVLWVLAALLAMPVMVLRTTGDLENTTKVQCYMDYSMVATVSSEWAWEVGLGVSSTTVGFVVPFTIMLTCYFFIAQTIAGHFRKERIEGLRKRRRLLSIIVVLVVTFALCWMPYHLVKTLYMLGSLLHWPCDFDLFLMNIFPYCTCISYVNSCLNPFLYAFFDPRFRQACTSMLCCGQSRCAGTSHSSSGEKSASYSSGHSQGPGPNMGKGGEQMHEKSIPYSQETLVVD
# Assay: APJ agonists inducing beta-arrestin recruitment, dose response, cell-based, luminescence, uHTS hits (AID 488748)
# Settings: not given
row,SMILES,EC50 [µM]
1,CCCCCCC1=Cc2c/c(=C3/NN=C(c4cc(OC)c(OC)c(OC)c4)O3)c(=O)oc2=CC1=O,> 100
2,COc1ccccc1-n1c(SC)nc(O)cc1=O,58.4
3,"Cn1ncc2c(ON=C(N)c3ccc(C(C)(C)C)cc3)ncnc21 [4-tert-butyl-N'-(1-methylpyrazolo[3,4-d]pyrimidin-4-yl)oxy-benzamidine]",> 100
4,"COC(=O)C1C(Cn2cnc3ccccc32)=NC(=O)NC1c1cc(C)ccc1C (centres undefined) [methyl 6-(benzimidazol-1-ylmethyl)-4-(2,5-dimethylphenyl)-2-oxo-3,4-dihydro-1H-pyrimidine-5-carboxylate]",> 100
5,CCOc1cc2[nH]c(=S)n(CCCC(=O)NCc3ccccn3)c(=O)c2cc1OCC,> 100
6,"CCOC(=O)N1CCN(S(=O)(=O)c2ccc(C(=O)N(CCCN(C)C)c3nc4ccc(Cl)cc4s3)cc2)CC1 [ethyl 4-[4-[(6-chloranyl-1,3-benzothiazol-2-yl)-[3-(dimethylamino)propyl]carbamoyl]phenyl]sulfonylpiperazine-1-carboxylate;hydrochloride]",> 100
7,Cc1ccc(S(=O)(=O)Nc2nc(-c3ccccc3)cs2)cc1,> 100
8,CCC(c1nnnn1Cc1ccccc1)N(Cc1cc2cc(OC)ccc2[nH]c1=O)CC1CCCO1 (centres undefined) [3-[[1-(1-benzyltetrazol-5-yl)propyl-(oxolan-2-ylmethyl)amino]methyl]-6-methoxy-1H-quinolin-2-one],> 100

# Next, values leading:
row,EC50 [µM],SMILES
1,> 100,C=CCn1c(SCC(=O)N2CCN(c3ccccc3)CC2)nc2c([nH]c3ccccc32)c1=O [MLS001236003]
2,> 100,Cc1cccc2sc(N(CCCN(C)C)C(=O)c3ccc(S(=O)(=O)N4CCc5ccccc5C4)cc3)nc12 [SMR000807812]
3,> 100,CC1=NOC(=O)/C1=C\c1ccc(-c2cc(Cl)ccc2Cl)o1 [SMR000141784]
4,> 100,O=c1oc2cc(OCc3ccc([N+](=O)[O-])cc3)ccc2c2c1CCCC2 [SMR000176214]
5,> 100,CCOc1cc2[nH]c(=S)n(CCN3CCCCC3CC)c(=O)c2cc1OCC (centres undefined) [MLS000520831]

# Same assay, conditions: inactive by the depositor's call
row,EC50 [µM],SMILES
1,96.6,"Cc1cc(C)n2nc3nc(N4CCCCC4)nc(-c4ccco4)c3c2n1 [4-(2-furyl)-6,8-dimethyl-2-piperidin-1-ylpyrimido[4',5':3,4]pyrazolo[1,5-a]pyrimidine]"
